Tests used:
[1] = system: adult F. hepatica; experiment: In vitro/ex vivo adult worm viability assay; assay type: cell-based, Fasciola hepatica; conditions: score 4 normal activity to 1 death
Protocol: The experiments were performed, as described previously. Adult F. hepatica were collected from bovine liver bile ducts obtained from the local slaughterhouse (Basel, Switzerland). After careful washing, a single adult worm was placed per well (6-well plate, Costar, MA, USA) containing 5.4 mL RPMI 1640 (Gibco, N.Y., USA), supplemented with 1% (v/v) antibiotics (50 µg/mL streptomycin and 50 U/mL penicillin), 1% (v/v) drug solution, […] Control worms were incubated in 1% (v/v) DMSO combined with iron or hemin. Experiments were conducted in triplicates and repeated once. Cultures were kept at 37 °C in an atmosphere of 5% CO2. The viabilities of treated and untreated worms were monitored at 0, 24, 48, and 72 h. Worms were examined by eye and/or using a dissecting microscope (20× lenses). The viability of adult flukes was scored using the following scale: 4: normal activity; movements were visible without a microscope, 3: reduced activities, 2: very weak activities detected only using microscopic magnification, and 1: death of worm (no movement observed for two min using a microscope).

[2] = system: HepG2 cells; experiment: Adenylate kinase leakage (membrane integrity test); assay type: cell-based, human; conditions: 24 h, HepG2
Protocol: Stock solutions of the drugs tested were prepared in DMSO 100% (v/v).
In viability assays, HepG2 cells were treated with 0.1% Triton-X or 0.1% DMSO for positive or negative control, respectively.
The assay was used according to the protocol supplied by the manufacturer.

[3] = system: complex I of the mitochondrial electron transport chain; experiment: High-resolution respirometry, glutamate/malate (complex I); assay type: cell-based, human; conditions: AS 100 µM, OZ78 500 µM, MT04 500 µM, 24 h, permeabilized HepG2, vs DMSO
Protocol: (§1) After incubation with different drugs for 24 h, HepG2 cells were trypsinized and resuspended in DMEM with 10% fetal calf serum (FCS) and then centrifuged for 5 min (180× g). Cells were resuspended in MiRo5 respiration buffer (110 mM sucrose, 0.5 mM ethylene glycol-bis(β-aminoethyl ether)-N,N,N′,N′-tetraacetic acid (EGTA), 3.0 mM MgCl2, 80 mM KCl, 60 mM K-lactobionate, 10 mM KH2PO4, 20 mM taurine, 20 mM Hepes, 1.0 g/L BSA, pH 7.1). Respiration rates were measured at 37 °C using a high-resolution oxygraph (Oxygraph-2k, Oroboros Instruments, Innsbruck, Austria). Respiration rates were calculated as the time derivative of oxygen concentration measured in the closed respirometer. The amplified signal was recorded in a computer with an online display of the calibrated oxygen concentration and oxygen flux (DatLab software for data acquisition and analysis; Oroboros Instruments). The mitochondrial complex activity was assessed by a standard titration protocol: first cells were permeabilized with digitonin (10 µg/1 million cells) for 5 min. Afterward, for complex I-dependent maximal respiration stimulation, substrates added were glutamate (10 mM) and malate (5 mM), which provide nicotinamide adenine dinucleotide (NADH) to the respiratory chain (complex I activation), followed by addition of ADP (2.5 mM) (state 3, maximal respiration). After a stable signal was reached and marked, rotenone (0.5 µM) was added to inhibit complex I, and then complex II-dependent respiration was stimulated by adding succinate (10 mM), which provides flavin adenine dinucleotide (FADH) to the respiratory chain (complex II activation, state 3). Afterward, complex III was inhibited by antimycin A (2.5 µM), and complex IV-dependent respiration was measured by adding ascorbate (2 mM) and N,N,N′,N′-tetramethyl-p-phenylendiamine (TMPD, 0.5 mM). We confirmed the integrity of the outer mitochondrial membrane by showing the absence of a stimulatory effect of exogenous cytochrome c (10 µM) on respiration. Respiration was expressed as oxygen consumption per 5 × 10^5 cells.

[4] = system: complex IV of the mitochondrial electron transport chain; experiment: High-resolution respirometry, TMPD/ascorbate + antimycin A (complex IV); assay type: cell-based, human; conditions: AS 100 µM, OZ78 500 µM, MT04 500 µM, 24 h, permeabilized HepG2
Protocol: as §1

[5] = system: NMRI mice; experiment: Liver toxicity study in mice (plasma AST, aPhos, bilirubin, liver histology); assay type: in vivo, mouse; conditions: for Histopathologic observation: liver 8 hours
Protocol: All animal studies were carried out at the Swiss Tropical and Public Health Institute (Basel, Switzerland) and were approved by Swiss and cantonal authorities (permission: 2070). Female NMRI mice (age: 3–4 weeks, weight: ~20 g) were purchased from Harlan Laboratories (Horst, The Netherlands). Mice were kept in groups of 10 animals in macrolon-cages in environmentally controlled conditions (temperature: ~25 °C; humidity: ~70%; 12 h light/dark cycle) and acclimatized for one week. They had free access to water and rodent diet. For the in vivo studies AS, OZ78 or MT04 were suspended in 7% (v/v) Tween-80 and 3% (v/v) ethanol.
Since treatment of F. hepatica infections in animals is typically performed by a single oral dose, we performed a pilot study to find out the best time point to kill the mice at which we could observe hepatic toxicity after drug application. This time point was 8 h after drug application (data not shown).
In the final experiment, mice were treated with 200, 400, or 800 mg/kg AS, OZ78, or MT04 by oral gavage. Seven mice were left untreated for control measurements. According to the results of the pilot experiments, where we measured the highest increase in total serum bilirubin, AST or alkaline phosphatase 8 h post-treatment, mice were euthanized by CO2 8 h post-treatment, blood was collected and analyzed as described above. After blood collection, the liver was removed, carefully examined macroscopically, and gross lesions were recorded. Livers were then stored in formalin 10% (v/v) until fixation in 4% paraformaldehyde was performed. After embedding in paraffin, sections of 5 μm thickness were obtained, stained with hematoxylin and eosin, and examined using light microscopy.

[6] = system: F. hepatica; conditions: rats infected with F. hepatica, single oral dose AS 200 mg/kg, OZ78 100 mg/kg, MT04 50 mg/kg; cited from earlier work

SMILES: O=C(O)CC1CCC2(CC1)OOC1(OO2)C2CC3CC(C2)CC1C3 (stereo not shown) [MT04]
- viability of adult F. hepatica (viability score) ([1]; 50 µg/mL drug + Fe2+ (iron), 24 h): 2.2
- viability of adult F. hepatica (viability score) ([1]; 50 µg/mL drug + Fe2+ (iron), 72 h): 1.6
- viability of adult F. hepatica (viability score) ([1]; 50 µg/mL drug + hemin, 24 h): 2.5
- viability of adult F. hepatica (viability score) ([1]; 50 µg/mL drug + hemin, 72 h): death of the worms
- viability of adult F. hepatica (viability score) ([1]; 50 µg/mL drug alone, 24 h): not affected
- viability of adult F. hepatica (viability score) ([1]; 50 µg/mL drug alone, 72 h): 1.6
- increase in AK release as compared to DMSO control / membrane integrity ([2]; 500 µM alone (OZ78, MT04: up to 500 µM)): did not impair membrane integrity
- release of AK, increase as compared to DMSO ([2]; combined treatment with Fe2+, concentration not given): 200%
- inhibition of maximal ADP-stimulated respiration rate, glutamate + malate (complex I) [3]: 53%
- decrease of maximal ADP-stimulated respiration rate, TMPD/ascorbate + antimycin A (complex IV) [4]: 22%
- Histopathologic observation ([5]; 200 mg/kg oral, mouse 1): No lesions
- Histopathologic observation ([5]; 200 mg/kg oral, mouse 2): No lesions
- Histopathologic observation ([5]; 200 mg/kg oral, mouse 3): No lesions
- Histopathologic observation ([5]; 200 mg/kg oral, mouse 4): Nuclear polymorphism
- Histopathologic observation ([5]; 400 mg/kg oral, mouse 1): Nuclear polymorphism
- Histopathologic observation ([5]; 400 mg/kg oral, mouse 2): Nuclear polymorphism
- Histopathologic observation ([5]; 400 mg/kg oral, mouse 3): No lesions
- Histopathologic observation ([5]; 400 mg/kg oral, mouse 4): No lesions
- Histopathologic observation ([5]; 800 mg/kg oral, mouse 1): No lesions
- Histopathologic observation ([5]; 800 mg/kg oral, mouse 2): Slight hydropic degeneration
- Histopathologic observation ([5]; 800 mg/kg oral, mouse 3): Slight hydropic degeneration and nuclear polymorphism
- Histopathologic observation ([5]; 800 mg/kg oral, mouse 4): Slight hydropic degeneration and nuclear polymorphism
- AST values of single mice ([5]; mice, 200 mg/kg oral, 8 h): Two mice treated with 200 mg/kg MT04 had highly elevated AST values
- liver histology, group summary ([5]; mice, 400 mg/kg oral, 8 h): no pathologic liver histology
- liver histology, group summary ([5]; mice, 800 mg/kg oral, 8 h): Three out of four mice treated with 800 mg/kg MT04 presented hydropic degeneration
- plasma aspartate aminotransferase (AST) ([5]; mice, single oral dose 200-800 mg/kg, 8 h post-treatment): did not affect AST levels in a concentration-dependent fashion
- hepatic toxicity in vivo (overall) ([5]; mice, single oral doses up to 800 mg/kg, 8 h): no relevant hepatic toxicity
- killing of juvenile and adult liver flukes in vivo [6]: efficiently killed juvenile and adult liver flukes

— paper PMC6801819, “Exogenous Iron Increases Fasciocidal Activity and Hepatocellular Toxicity of the Synthetic Endoperoxides OZ78 and MT04” (International Journal of Molecular Sciences, 2019)
